Experimental data taken from patent US12319672B2, “Alpha-D-galactopyranoside derivatives” (Idorsia Pharmaceuticals Ltd, priority 2019, dated 2025).

Tests used:
human Gal-1 (hGal-1) = assay: Competitive binding assay: binding of biotinylated hGal-1 to microplate-adsorbed asialofetuin (ASF); settings: Activities on hGal-1; mean values of several measurements
Outline: (§1)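 Biotin-hGal-3/hGal-1 300-1000 ng/mL + cpd (DMSO dilutions) on ASF-coated plate, 3 h 4° C; wash; SA-HRP 80 ng/mL 1 h 4° C; wash; ABTS. IC50 = mean of several runs. hGal-1 preferably Cys→Ser (all six) mutant.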

human Gal-3 (hGal-3) = human Gal-3 (hGal-3) (Homo sapiens (Human), UniProt P17931); assay: Competitive binding assay: binding of biotinylated hGal-3 to microplate-adsorbed asialofetuin (ASF); settings: Activity on hGal-3; mean values of several measurements
Chain of human Gal-3 (hGal-3) (P17931 whole entry): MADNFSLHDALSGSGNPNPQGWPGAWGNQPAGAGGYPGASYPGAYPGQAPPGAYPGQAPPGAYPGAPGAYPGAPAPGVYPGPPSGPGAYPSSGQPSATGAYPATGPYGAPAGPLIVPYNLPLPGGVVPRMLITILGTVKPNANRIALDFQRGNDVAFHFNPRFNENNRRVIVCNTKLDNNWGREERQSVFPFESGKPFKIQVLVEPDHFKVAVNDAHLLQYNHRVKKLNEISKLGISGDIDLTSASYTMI
Outline: as §1

Chain of human Gal-1 (hGal-1) (P09382 2-135 limits assumed): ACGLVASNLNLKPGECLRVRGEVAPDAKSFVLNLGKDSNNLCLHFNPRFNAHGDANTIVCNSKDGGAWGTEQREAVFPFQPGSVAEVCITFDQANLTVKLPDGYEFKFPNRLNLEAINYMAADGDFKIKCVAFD

Row | SMILES | IC50 (human Gal-1 (hGal-1)) [nM] | IC50 (human Gal-3 (hGal-3)) [nM]
1 | CO[C@@H]1[C@@H](n2cc(-c3cc(F)c(F)c(F)c3)nn2)[C@@H](O)[C@@H](CO)O[C@@H]1Cn1cc(C2(C#N)CCCC2)nn1 [Example 4.50, 1-(1-(((2R,3R,4S,5R,6R)-5-hydroxy-6-(hydroxymethyl)-3-methoxy-4-(4-(3,4,5-trifluorophenyl)-1H-1,2,3-triazol-1-yl)tetrahydro-2H-pyran-2-yl)methyl)-1H-1,2,3-triazol-4-yl)cyclopentane-1-carbonitrile] | 4290 | 330
2 | OC[C@H]1O[C@H](Cc2cc(C3CCNCC3)on2)[C@H](OCC(F)F)[C@@H](n2cc(-c3cc(F)c(F)c(F)c3)nn2)[C@H]1O [Example 2.26, (2R,3R,4S,5R,6R)-5-(2,2-difluoroethoxy)-2-(hydroxymethyl)-6-((5-(piperidin-4-yl)isoxazol-3-yl)methyl)-4-(4-(3,4,5-trifluorophenyl)-1H-1,2,3-triazol-1-yl)tetrahydro-2H-pyran-3-ol] | 4490 | 200
3 | CO[C@@H]1[C@@H](n2cc(-c3cc(F)c(F)c(F)c3)nn2)[C@@H](O)[C@@H](CO)O[C@@H]1C[C@H]1CC(C2CCCCC2)=NO1 [Ex 1.09] | 27500 | 2150
4 | CC(=O)O[C@@H]1[C@@H](n2cc(-c3cc(F)c(F)c(F)c3)nn2)[C@@H](O)[C@@H](CO)O[C@@H]1CC1=NO[C@@H](C2CCN(C(C)=O)CC2)C1 [Example 3.24, (2R,3R,4S,5R,6R)-2-(((R)-5-(1-acetylpiperidin-4-yl)-4,5-dihydroisoxazol-3-yl)methyl)-5-hydroxy-6-(hydroxymethyl)-4-(4-(3,4,5-trifluorophenyl)-1H-1,2,3-triazol-1-yl)tetrahydro-2H-pyran-3-yl acetate] | 9190 | 340
5 | CCC(O)(CC)c1cc(C[C@H]2O[C@H](CO)[C@H](O)[C@H](n3cc(-c4ccc(C)c(F)c4F)nn3)[C@H]2OC)no1 [Ex 1.323] | 5080 | 620
6 | CO[C@@H]1[C@@H](n2cc(-c3cc(F)c(F)c(F)c3)nn2)[C@@H](O)[C@@H](CO)O[C@@H]1CC1CN(C2CCOCC2)C(=O)O1 (mixture of isomers) [Example 5.17, (RS)-5-(((2R,3R,4S,5R,6R)-5-hydroxy-6-(hydroxymethyl)-3-methoxy-4-(4-(3,4,5-trifluorophenyl)-1H-1,2,3-triazol-1-yl)tetrahydro-2H-pyran-2-yl)methyl)-3-(tetrahydro-2H-pyran-4-yl)oxazolidin-2-one] | 9070 | 190
7 | CO[C@@H]1[C@@H](n2cc(-c3cc(F)c(F)c(F)c3)nn2)[C@@H](O)[C@@H](CO)O[C@@H]1C[C@H]1CC(c2cc[nH]c(=O)c2)=NO1 [Example 2.07b, 4-((R)-5-(((2R,3R,4S,5R,6R)-5-hydroxy-6-(hydroxymethyl)-3-methoxy-4-(4-(3,4,5-trifluorophenyl)-1H-1,2,3-triazol-1-yl)tetrahydro-2H-pyran-2-yl)methyl)-4,5-dihydroisoxazol-3-yl)pyridin-2(1H)-one] | 11700 | 1700
8 | OC[C@H]1O[C@H](Cc2cc(C3CCOCC3)on2)[C@H](O)[C@@H](n2cc(-c3cc(F)c(F)c(F)c3)nn2)[C@H]1O [Ex 1.60] | 6970 | 290
9 | COc1ccc(C2=NOC(C[C@H]3O[C@H](CO)[C@H](O)[C@H](n4cc(-c5cc(F)c(F)c(F)c5)nn4)[C@H]3O)C2)cc1 (stereo partly shown) [Ex 1.02] | 53900 | 490
10 | CO[C@@H]1[C@@H](n2cc(-c3ccc(C)c(F)c3F)nn2)[C@@H](O)[C@@H](CO)O[C@@H]1Cc1cc(-c2ccc(F)c(F)c2F)on1 [Ex 1.229] | > 100000 | 530
11 | CO[C@@H]1[C@@H](n2cc(-c3cc(F)c(F)c(F)c3)nn2)[C@@H](O)[C@@H](CO)O[C@@H]1Cc1cc(C2CCNCC2)sn1 [Example 6.03, (2R,3R,4S,5R,6R)-2-(hydroxymethyl)-5-methoxy-6-((5-(piperidin-4-yl)isothiazol-3-yl)methyl)-4-(4-(3,4,5-trifluorophenyl)-1H-1,2,3-triazol-1-yl)tetrahydro-2H-pyran-3-ol] | 4160 | 220
12 | CO[C@@H]1[C@@H](n2cc(-c3cc(F)c(F)c(F)c3)nn2)[C@@H](O)[C@@H](CO)O[C@@H]1Cc1cc(C23CCC(NC(=O)OC(C)(C)C)(CC2)CC3)on1 [Ex 1.130] | 18100 | 260
13 | OC[C@H]1O[C@H](CC2=NOC(C3CCNCC3)C2)[C@H](O)[C@@H](n2cc(-c3cc(F)c(F)c(F)c3)nn2)[C@H]1O (mixture of isomers) [Example 3.09, (2R,3R,4R,5R,6R)-2-(hydroxymethyl)-6-(((RS)-5-(piperidin-4-yl)-4,5-dihydroisoxazol-3-yl)methyl)-4-(4-(3,4,5-trifluorophenyl)-1H-1,2,3-triazol-1-yl)tetrahydro-2H-pyran-3,5-diol] | 13300 | 840

Now those with a lower IC50 (human Gal-1 (hGal-1)), led by results:

Row | IC50 (human Gal-1 (hGal-1)) [nM] | IC50 (human Gal-3 (hGal-3)) [nM] | SMILES
14 | 3090 | 330 | CO[C@@H]1[C@@H](n2cc(-c3cc(F)c(F)c(F)c3)nn2)[C@@H](O)[C@@H](CO)O[C@@H]1C[C@@H]1CC(c2ccc3[nH]c(=O)oc3c2)=NO1 [Ex 1.30]
15 | 2470 | 170 | CC(=O)O[C@@H]1[C@@H](n2cc(-c3cc(F)c(F)c(F)c3)nn2)[C@@H](O)[C@@H](CO)O[C@@H]1CC1=NO[C@H](C2CCN(C(C)=O)CC2)C1 [Example 3.25, (2R,3R,4S,5R,6R)-2-(((S)-5-(1-acetylpiperidin-4-yl)-4,5-dihydroisoxazol-3-yl)methyl)-5-hydroxy-6-(hydroxymethyl)-4-(4-(3,4,5-trifluorophenyl)-1H-1,2,3-triazol-1-yl)tetrahydro-2H-pyran-3-yl acetate]
16 | 2290 | 210 | CO[C@@H]1[C@@H](n2cc(-c3cc(F)c(C)cc3F)nn2)[C@@H](O)[C@@H](CO)O[C@@H]1Cc1cc(C(C)(C)C)on1 [Ex 1.247]
17 | 2280 | 36 | CO[C@@H]1[C@@H](n2cc(-c3ccc(C)c(F)c3F)nn2)[C@@H](O)[C@@H](CO)O[C@@H]1Cc1cc(C(C)(C)O)no1 [Example 2.62, (2R,3R,4S,5R,6R)-4-(4-(2,3-difluoro-4-methylphenyl)-1H-1,2,3-triazol-1-yl)-2-(hydroxymethyl)-6-((3-(2-hydroxypropan-2-yl)isoxazol-5-yl)methyl)-5-methoxytetrahydro-2H-pyran-3-ol]
18 | 2270 | 1410 | COc1cccc(-c2cn([C@H]3[C@@H](O)[C@@H](CO)O[C@H](CC4CC(C5CCN(C(=O)OC(C)(C)C)CC5)=NO4)[C@@H]3O)nn2)c1 (stereo partly shown) [Ex 1.300]
19 | 1400 | 97 | CN=S(=O)(C(C)C)N1CCC(c2cc(C[C@H]3O[C@H](CO)[C@H](O)[C@H](n4cc(-c5cc(F)c(F)c(F)c5)nn4)[C@H]3OC)no2)CC1 (mixture of isomers) [Example 3.57, (RS)-(2R,3R,4S,5R,6R)-2-(hydroxymethyl)-5-methoxy-6-((5-(1-(N-methylpropan-2-ylsulfonimidoyl)piperidin-4-yl)isoxazol-3-yl)methyl)-4-(4-(3,4,5-trifluorophenyl)-1H-1,2,3-triazol-1-yl)tetrahydro-2H-pyran-3-ol]
20 | 1330 | 42 | CO[C@@H]1[C@@H](n2cc(-c3ccc(Cl)c(F)c3F)nn2)[C@@H](O)[C@@H](CO)O[C@@H]1Cc1cc(C2(O)CCCCC2)on1 [Ex 1.243]
21 | 820 | 84 | CO[C@@H]1[C@@H](n2cc(-c3cc(F)c(F)c(F)c3)nn2)[C@@H](O)[C@@H](CO)O[C@@H]1Cc1cc(C2CCN(C(=O)N3CCN(C)CC3)CC2)on1 [Example 3.70, (4-(3-(((2R,3R,4S,5R,6R)-5-hydroxy-6-(hydroxymethyl)-3-methoxy-4-(4-(3,4,5-trifluorophenyl)-1H-1,2,3-triazol-1-yl)tetrahydro-2H-pyran-2-yl)methyl)isoxazol-5-yl)piperidin-1-yl)(4-methylpiperazin-1-yl)methanone]
22 | 590 | 52 | Cc1ccc(-c2cn([C@H]3[C@@H](O)[C@@H](CO)O[C@H](Cc4cc(C(C)(C)C)no4)[C@@H]3OCc3cscn3)nn2)c(F)c1F [Example 2.54, (2R,3R,4S,5R,6R)-6-((3-(tert-butyl)isoxazol-5-yl)methyl)-4-(4-(2,3-difluoro-4-methylphenyl)-1H-1,2,3-triazol-1-yl)-2-(hydroxymethyl)-5-(thiazol-4-ylmethoxy)tetrahydro-2H-pyran-3-ol]
23 | 470 | 84 | CCOC(=O)N1CCC(c2cc(C[C@H]3O[C@H](CO)[C@H](O)[C@H](n4cc(-c5ccc(Cl)c(F)c5)nn4)[C@H]3OC)no2)CC1 [Ex 1.149]
24 | 360 | 44 | CO[C@@H]1[C@@H](n2cc(-c3ccc(F)c(F)c3F)nn2)[C@@H](O)[C@@H](CO)O[C@@H]1Cc1cc(C2(C)CC2)no1 [Ex 1.251]
25 | 310 | 260 | CO[C@@H]1[C@@H](n2cc(-c3cc(F)c(F)c(F)c3)nn2)[C@@H](O)[C@@H](CO)O[C@@H]1C[C@@H]1CC(c2cc[nH]c(=O)c2)=NO1 [Example 2.07a, 4-((S)-5-(((2R,3R,4S,5R,6R)-5-hydroxy-6-(hydroxymethyl)-3-methoxy-4-(4-(3,4,5-trifluorophenyl)-1H-1,2,3-triazol-1-yl)tetrahydro-2H-pyran-2-yl)methyl)-4,5-dihydroisoxazol-3-yl)pyridin-2(1H)-one]
26 | 300 | 330 | CO[C@@H]1[C@@H](n2cc(-c3cc(F)c(F)c(F)c3)nn2)[C@@H](O)[C@@H](CO)O[C@@H]1C[C@@H]1CN(C2CCN(C(C)=O)CC2)C(=O)O1 [Example 5.05, (R)-3-(1-acetylpiperidin-4-yl)-5-(((2R,3R,4S,5R,6R)-5-hydroxy-6-(hydroxymethyl)-3-methoxy-4-(4-(3,4,5-trifluorophenyl)-1H-1,2,3-triazol-1-yl)tetrahydro-2H-pyran-2-yl)methyl)oxazolidin-2-one]
